In the assay the test system is HBsAg in HepG2.2.15 cells. Nature of the assay: HBsAg Assay: inhibition of HBsAg in HepG2.2.15 cells (CLIA immunoassay of supernatant). It counts as cell-based, hepatitis B virus. The following applies: supernatant collected at day 6 after exposure of compounds, final DMSO 0.5%. As for the experimental part: Inhibition of HBsAg was determined in HepG2.2.15 cells. Cells were maintained in culture medium containing 10% fetal calf serum, […], Glutamine, penicillin/streptomycin. Cells were seeded in 96-well collagen-coated plate at a density of 30,000 cells/well. Serially diluted compounds were added to cells next day at the final DMSO concentration of 0.5%. Cells were incubated with compounds for 2-3 days, after which medium was removed. Fresh medium containing compounds was added to cells for additional 3-4 days. At day 6 after exposure of compounds, supernatant was collected, the HBsAg immunoassay (microplate-based chemiluminescence immunoassay kits, CLIA, Autobio Diagnosics Co., Zhengzhou, China, Catalog #CL0310-2) was used to determine the level of HBsAg according to manufactory instruction. Dose-response curves were generated and the EC50 value (effective concentrations that achieved 50% inhibitory effect) were determined using XLfit software. In addition, cells were seeded at a density of 5,000 cells/well for determination of cell viability in the presence and absence of compounds by using CellTiter-Glo reagent (Promega). Tables 1-3 show EC50 values obtained by the HBsAg assay for selected compounds.

[1] abbreviates: read-out: sAg EC50, HepG2.2.15 cells.
[2] abbreviates: Hepatitis B virus, HepG2.2.15, 144 h, read-out: sAg EC50, μM, HepG2.2.15 cells.

21 compounds from patent publication US20220125771A1, “S[…], ANALOGUES THEREOF, AND METHODS USING SAME” (priority 2019, published 2022) can be followed below.

Like-named read-outs stand apart in the source and are kept apart here.

As to `CC(C)(C)C1Cc2c(cc(OC(F)F)c3ncccc23)-c2[nH]c(=O)c(C(=O)O)cc21` (single isomer, unassigned) [Example 38, 6-(tert-butyl)-12-(difluoromethoxy)-9-oxo-5,6,9,10-tetrahydroquinolino[7,8-f]quinoline-8-carboxylic Acid], the concentration for a half-maximal effect (EC50) – broadly, the concentration needed to bring the measured effect to its halfway point – under setting [1] worked out at 3 µM.
The same measure, in the same setting: as for `COc1ccn2c3c(nc2c1OC)-c1[nH]c(=O)c(C(=O)O)cc1C(C(C)(C)C)C3` (single isomer, unassigned) [Example 18, 5-(tert-Butyl)-10,11-dimethoxy-2-oxo-1,2,5,6-tetrahydropyrido[2′,1′:2,3]imidazo[4,5-h]quinoline-3-carboxylic Acid], the figure is 0.005 µM; as for `CC(C)(C)C1Cn2c(cc3c(OC(F)F)cccc32)-c2[nH]c(=O)c(C(=O)O)c(O)c21` (single isomer, unassigned) [Example 3, 5-(tert-Butyl)-11-(difluoromethoxy)-4-hydroxy-2-oxo-1,2,5,6-tetrahydroindolo[1,2-h][1,7]naphthyridine-3-carboxylic Acid], 0.005 µM.
For the compound `CC(C)(C)C1Cn2c(nc3c(OC(F)F)cccc32)-c2[nH]c(=O)c(C(=O)O)c(O)c21` (stereo not drawn) [Example 25, 5-(tert-Butyl)-11-(difluoromethoxy)-4-hydroxy-2-oxo-1,2,5,6-tetrahydrobenzo[4,5]imidazo[1,2-h][1,7]naphthyridine-3-carboxylic Acid], the EC50 under setting [2] was 0.004 µM.
In the case of `CC(C)C1Cc2c(nc3c(OC(F)F)cccn23)-c2[nH]c(=O)c(C(=O)O)cc21` (single isomer, unassigned) [Example 13, 11-(Difluoromethoxy)-5-isopropyl-2-oxo-1,2,5,6-tetrahydropyrido[2′,1′:2,3]imidazo[4,5-h]quinoline-3-carboxylic Acid], the EC50 under setting [1] was determined as 1.1 µM.
Take `COc1cccc2c1nc1n2CC(C(C)(C)C)c2c-1[nH]c(=O)c(C(=O)O)c2O` (stereo not drawn) [Example 24, 5-(tert-Butyl)-4-hydroxy-11-methoxy-2-oxo-1,2,5,6-tetrahydrobenzo[4,5]imidazo[1,2-h][1,7]naphthyridine-3-carboxylic Acid]: under setting [2], the EC50 was 0.02 µM.
Same read-out and setting: as for `COc1nc2c(c3ccccc13)CC(C(C)(C)C)c1cc(C(=O)O)c(=O)n(C)c1-2` (stereo not drawn) [Example 43, 12-(tert-Butyl)-6-methoxy-4-methyl-3-oxo-3,4,11,12-tetrahydrobenzo[c][1,10]phenanthroline-2-carboxylic Acid], the figure is 0.023 µM; as for `COCCOc1cccc2c1cc1n2CC(C(C)(C)C)c2c-1[nH]c(=O)c(C(=O)O)c2O` (stereo not drawn) [Example 6, 5-(tert-Butyl)-4-hydroxy-11-(2-methoxyethoxy)-2-oxo-1,2,5,6-tetrahydroindolo[1,2-h][1,7] naphthyridine-3-carboxylic Acid], 0.76 µM.
As for `CC(C)C1Cc2c(nc3c(OC(F)F)cccn23)-c2[nH]c(=O)c(C(=O)O)cc21` (single isomer, unassigned) [Example 12, 11-(Difluoromethoxy)-5-isopropyl-2-oxo-1,2,5,6-tetrahydropyrido[2′,1′:2,3]imidazo[4,5-h]quinoline-3-carboxylic Acid], the EC50 under setting [1] came to 0.018 µM.
`COc1ccn2c3c(nc2c1OC)-c1c(cc(C(=O)O)c(=O)n1C)C(C(C)(C)C)C3` (single isomer, unassigned) [Example 22, 5-(tert-Butyl)-10,11-dimethoxy-1-methyl-2-oxo-1,2,5,6-tetrahydropyrido[2′,1′:2,3]imidazo[4,5-h]quinoline-3-carboxylic Acid]: under setting [1], the EC50 is 0.11 µM.
With `COc1cccn2c3c(nc12)-c1[nH]c(=O)c(C(=O)O)cc1C(C(C)(C)C)C3` (single isomer, unassigned) [Example 14, 5-(tert-Butyl)-11-methoxy-2-oxo-1,2,5,6-tetrahydropyrido[2′,1′:2,3]imidazo[4,5-h]quinoline-3-carboxylic Acid], under setting [1], the EC50 was found to be 0.012 µM.
Turning to `CN1CCCc2c3c(cc(OC(F)F)c21)-c1[nH]c(=O)c(C(=O)O)cc1C(C(C)(C)C)C3` (single isomer, unassigned) [Example 33, 6-(tert-Butyl)-12-(difluoromethoxy)-1-methyl-9-oxo-1,2,3,4,5,6,9,10-octahydroquinolino[7,8-f]quinoline-8-carboxylic Acid], the half-maximal effective concentration (EC50) under setting [1] is 0.3 µM.
With `CC(=O)N1CCCc2c3c(cc(OC(F)F)c21)-c1[nH]c(=O)c(C(=O)O)cc1C(C(C)(C)C)C3` (stereo not drawn) [Example 31, 1-Acetyl-6-(tert-butyl)-12-(difluoromethoxy)-9-oxo-1,2,3,4,5,6,9,10-octahydroquinolino[7,8-f]quinoline-8-carboxylic Acid], the EC50 under setting [2] amounted to 0.05 µM.
The same measure, in the same setting: as for `CC(C)(C)C1Cc2c(cc(OC(F)F)c3c2CCCN3)-c2[nH]c(=O)c(C(=O)O)c(O)c21` (stereo not drawn) [Example 9, 6-(tert-Butyl)-12-(difluoromethoxy)-7-hydroxy-9-oxo-1,2,3,4,5,6,9,10-octahydroquinolino[7,8-f]quinoline-8-carboxylic Acid], the figure is 0.011 µM.
With `Cn1c2c(cc(C(=O)O)c1=O)C(C(C)(C)C)Cc1c-2nc(Cl)c2ccccc12` (single isomer, unassigned) [Example 45, 12-(tert-Butyl)-6-chloro-4-methyl-3-oxo-3,4,11,12-tetrahydrobenzo[c][1,10]phenanthroline-2-carboxylic Acid], the EC50 under setting [1] was 1 µM.
For the compound `CC(C)(C)C1Cc2c(nc3c(OC(F)F)cccn23)-c2[nH]c(=O)c(C(=O)O)cc21` (single isomer, unassigned) [Example 11, 5-(tert-Butyl)-11-(difluoromethoxy)-2-oxo-1,2,5,6-tetrahydropyrido[2′,1′:2,3]imidazo[4,5-h]quinoline-3-carboxylic Acid], the EC50 under setting [1] is 27 µM.
On to `CCN1CCCc2c3c(cc(OC(F)F)c21)-c1[nH]c(=O)c(C(=O)O)cc1C(C(C)(C)C)C3` (stereo not drawn) [Example 34, 6-(tert-Butyl)-12-(difluoromethoxy)-1-ethyl-9-oxo-1,2,3,4,5,6,9,10-octahydroquinolino[7,8-f]quinoline-8-carboxylic Acid], for which the EC50 under setting [2] stood at 0.012 µM.
Consider `COc1cccn2c3c(nc12)-c1[nH]c(=O)c(C(=O)O)cc1C(C(C)(C)C)C3` (single isomer, unassigned) [Example 15, 5-(tert-Butyl)-11-methoxy-2-oxo-1,2,5,6-tetrahydropyrido[2′,1′:2,3]imidazo[4,5-h]quinoline-3-carboxylic Acid], for which the EC50 under setting [1] was determined as 1 µM.
On the same count and under the same terms, as for `COc1nc2c(c3ccccc13)CC(C(C)(C)C)c1cc(C(=O)O)c(=O)[nH]c1-2` (single isomer, unassigned) [Example 42, 12-(tert-Butyl)-6-methoxy-3-oxo-3,4,11,12-tetrahydrobenzo[c][1,10]phenanthroline-2-carboxylic Acid], the figure is 0.075 µM; as for `Cn1c2c(cc(C(=O)O)c1=O)C(C(C)(C)C)Cc1c-2nc(Cl)c2ccccc12` (single isomer, unassigned) [Example 44, 12-(tert-Butyl)-6-chloro-4-methyl-3-oxo-3,4,11,12-tetrahydrobenzo[c][1,10]phenanthroline-2-carboxylic Acid], 0.009 µM.
On to `Cn1c2c(cc(C(=O)O)c1=O)C(C(C)(C)C)Cc1c-2cc(OC(F)F)c2ncccc12` (single isomer, unassigned) [Example 40, 6-(tert-Butyl)-12-(difluoromethoxy)-10-methyl-9-oxo-5,6,9,10-tetrahydroquinolino[7,8-f]quinoline-8-carboxylic Acid], for which the EC50 under setting [1] came to 0.2 µM.
